Experimental data taken from US20260284113A1, “COMPOSITIONS AND METHODS FOR TREATING PERIPHERAL VASCULAR DISEASE” (MAYO FOUNDATION FOR MEDICAL EDUCATION AND RESEARCH, priority 2022, published 2026).

System: HUVECs
Assay: Matrigel tube formation assay
Format: cell-based, human
Details: HUVECs on Matrigel, six hours; PEP 2.5×10^11 vesicles/mL, VEGF 100 ng/ml
Protocol: 96-well plates (Corning, Inc., Corning, NY) were pre-coated with MATRIGEL (Corning Life Sciences, Corning, NY) and allowed to solidify for one hour at 37° C. before cell seeding. GFP-tagged HUVECs (1×10^4 cells/well) were then added to individual wells in medium designated treatment. Images were acquired at time 0, one hour, three hours, and six hours post-treatment with an inverted microscope (DMI6000 B, Leica Microsystems GmbH, Wetzlar, Germany). All images were analyzed with Angiotool (Zudaire et al., 2011, PLoS One 6:e27385).

## VEGF
  number of junctions per field: 59.75
  total length of branches per field: 2459.59 pixels
